Holding throughout (assay): NCI anticancer screen, dose series, 48 h
The test system of test [1] is RXF 393 renal.
The test system of test [2] is MALME-3M melanoma.
Test [3] concerns DU-145 prostate.
Test [4] deals with PC-3 prostate.
Test [5] deals with 786-0 renal.
Test [6] has as its system SK-MEL-28 melanoma.
The subject of test [7] is CCRF-CEM leukemia.
Test [8] concerns OVCAR-3 ovarian.
The subject of test [9] is HCT-15 colon.
Test [10] deals with UACC-62 melanoma.
Test [11] concerns KM12 colon.
The test system of test [12] is RPMI-8226 leukemia.
For test [13], the system named is HCT-116 colon.
The test system of test [14] is OVCAR-4 ovarian.
For test [15], the system named is UACC-257 melanoma.
Test [16] deals with OVCAR-8 ovarian.
The test system of test [17] is CAKI-1 renal.
Test [18] concerns SF-539 CNS.
Test [19] concerns K-562 leukemia.

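Cells were grown in 96-well plates and exposed to each compound for 48 hours at five concentrations; endpoints were interpolated linearly between bracketing concentrations, or set to the highest concentration if not reached. At the TGI there is no net growth.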

Consider `NNC(=O)c1ccccc1Nc1ccccc1C(=O)NN`, for which the TGI in test [1], in [2], in [3], in [4], in test [5] and in test [6] was more than 100 µM throughout. Further, the TGI in test [7], in test [8], in test [9], in [10], in [11] and in test [12] was more than 100 µM in each case. Besides, the TGI in test [13], in [14], in test [15], in [16], in test [17] and in test [18] was more than 100 µM in each case. Moreover, the TGI in [19] was more than 100 µM.

Turning to `N#CC1=C(S)N(C2OC(CO)C(O)C(O)C2O)C(c2ccccc2)=CC1c1ccccc1` (centres undefined), the TGI in test [1] was 92.7 µM; in test [2] it was more than 100 µM; in [3], more than 100 µM; in test [4] it was more than 100 µM; in test [5], more than 100 µM; in test [6], more than 100 µM. Also, the TGI in test [7] is more than 100 µM; in test [8] it was 98.5 µM; in [9] it was more than 100 µM; in test [10], 62.7 µM; in test [11], more than 100 µM; in test [12] it was more than 100 µM. Besides, the TGI in test [13], in test [14], in test [15], in [16], in [17] and in test [18] was more than 100 µM each time. Besides, in test [19], the TGI was more than 100 µM.

In the case of `O=C1CCCC2=C(N1)C(=O)C=CC2=O`, the TGI in [1] worked out at 62.9 µM; in test [2], 56.6 µM; in test [3], 31.2 µM; in test [4] it was 29.9 µM; in test [5], 57.5 µM; in [6] it was 60.4 µM. The TGI in [7] stood at 28.5 µM; in test [8], 64.4 µM; in [9], 62.6 µM; in [10] it was 56.7 µM; in test [11], 36.7 µM; in test [12], 60.2 µM. Moreover, the TGI worked out at 49.1 µM in [13]; 67.6 µM in test [14]; 61.1 µM in test [15]; 64.2 µM in test [16]; 49.6 µM in test [17]; 59.1 µM in test [18]. Moreover, the TGI in test [19] was 32 µM.

For the molecule `CC1=C2C(=O)OCC23C=COC3(C)O1` (centres undefined), the TGI was more than 100 µM in [1]; 74.5 µM in [2]; more than 100 µM in test [3]; more than 100 µM in test [4]; more than 100 µM in test [5]; 46.3 µM in [6]. For the same molecule, the TGI was more than 100 µM in [7]; 97.1 µM in [8]; more than 100 µM in test [9]; 46.7 µM in test [10]; 95.9 µM in test [11]; more than 100 µM in [12]. The TGI was more than 100 µM in test [13]; more than 100 µM in test [14]; more than 100 µM in test [15]; more than 100 µM in test [16]; 68.8 µM in test [17]; 65.9 µM in test [18]. The molecule further showed a TGI in test [19] of more than 100 µM.

Take `COC(=O)[C@@H]1C[C@H]([Se]c2ccccc2)CN1S(=O)(=O)c1ccc(C)cc1`: the TGI in test [1], in [2], in [3], in test [4], in test [5] and in [6] was more than 100 µM throughout. The TGI in [7], in test [8], in [9], in [10], in [11] and in test [12] was more than 100 µM in each case. Besides, the TGI in [13], in [14], in test [15], in test [16], in test [17] and in [18] was more than 100 µM in each case. Also, the TGI in test [19] is more than 100 µM.

For `CCOC(=O)C(NC(=O)c1ccccc1)(Nc1ccc(S(=O)(=O)Nc2nc(C)cc(C)n2)cc1)C(F)(F)F` (centres undefined), the TGI in test [1], in [2], in [3], in [4], in [5] and in test [6] was more than 100 µM in each case. The TGI in test [7], in [8], in test [9], in test [10], in [11] and in [12] was more than 100 µM in each case. Moreover, the TGI in [13], in test [14], in test [15], in [16], in test [17] and in [18] was more than 100 µM in each case. Moreover, the TGI in test [19] is more than 100 µM.

For the origin of these results see PubChem BioAssay (NCI).
